We go through eleven compounds from ChEMBL document CHEMBL1201862, “PubChem BioAssay data set” (2004).

Structures are written as SMILES. Counter-ions that a name gives are not always drawn.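 Growth conditions: 96-well plates. Treatment: test compound, 48 hours, 5 concentrations. Analysis: linear interpolation between bracketing concentrations; unreached endpoints set to highest concentration. GI50 is the concentration that inhibits growth by half.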 Activity calls are given as the source filed them. Rule as the data show it: active = GI50 up to about 1.1 µM and inactive = higher. Square brackets hold non-standard residues; d marks the D form. Peptide text beside a SMILES is read from it. Some results are limits rather than exact numbers.

Holding throughout (assay): growth of human tumour cells (NCI), 48 h
Test [1] relates to A498.
The subject of test [2] is A549.
For test [3], the system named is CAKI-1.
Test [4] concerns CCRF-CEM.
Test [5] concerns HCT-15.
Test [6] deals with HT-29.
The test system of test [7] is MCF7.
Test [8] concerns Malme-3M.
The subject of test [9] is NCI-H226.
Test [10] deals with NCI-H522.
For test [11], the system named is OVCAR-8.
The subject of test [12] is PC-3.
In test [13] the test system is RPMI-8226.
Test [14] has as its system SN12C.
Test [15] deals with SW-620.
Test [16] relates to T47D.
The test system of test [17] is U-251.
Test [18] relates to UO-31.
In test [19] the test system is HL-60.
Test [20] deals with MOLT-4.

In the case of `COc1cc2c[n+](C)c3c4cc(OC)c(OC)cc4c(OC)cc3c2cc1OC`, the GI50 in test [1] is > 100 µM (inactive); in [2], > 65.3 µM (inactive); in [3] it was > 100 µM (inactive); in [4], 6.1 µM (inactive); in test [5], over 100 µM; in [6], 5.48 µM (inactive). Besides, the GI50 in [7] was 2.17 µM (inactive); in test [8], 2.06 µM (inactive); in test [9], 1.36 µM (inactive); in test [10], 0.0359 µM (active); in [11], 0.371 µM (active); in test [12] it was 12.2 µM (inactive). For the same compound, the GI50 in test [13] is 16.4 µM (inactive); in test [14], 0.188 µM (active); in test [15] it was 7.69 µM (inactive); in test [16] it was 1.85 µM (inactive); in [17] it was 2.38 µM (inactive); in test [18] it was > 100 µM (inactive).

`N=C(N)NCCC[C@H]1NC(=O)[C@@H](CCC(=O)O)NC(=O)[C@@H](CC(=O)O)NC(=O)[C@@H](CCC(=O)O)NC(=O)[C@H](Cc2c[nH]c3ccccc23)NC1=O` (cyclo(W[dE][dD][dE][dR])): the GI50 in [1] is > 7.5 µM (inactive); in [2], > 7.5 µM (inactive); in test [3], > 7.5 µM (inactive); in [4], > 7.5 µM (inactive); in test [5] it was over 7.5 µM; in test [19], > 7.5 µM (inactive). The GI50 in test [6], in [7], in test [20], in test [9], in [10] and in test [11] was > 7.5 µM (inactive) each time. In addition, the GI50 in [12] is 0.351 µM (active); in test [13], > 7.5 µM (inactive); in test [14], > 7.5 µM (inactive); in [15], > 7.5 µM (inactive); in [16], > 7.5 µM (inactive); in [17], > 7.5 µM (inactive). Moreover, in [18], the GI50 was > 7.5 µM (inactive).

Take `c1ccc(-c2ccc(/N=N/N3CCCC3)cc2)cc1`: the GI50 in test [1] is > 100 µM (inactive); in test [3], > 100 µM (inactive); in test [4], > 100 µM (inactive); in test [5] it was over 100 µM; in test [7], > 100 µM (inactive); in test [20], > 100 µM (inactive). The GI50 in [9] was > 100 µM (inactive); in [10] it was > 100 µM (inactive); in [11], > 100 µM (inactive); in [12], > 100 µM (inactive); in test [13], 22.8 µM (inactive); in [14], > 100 µM (inactive). Further, the GI50 in [15], in [16], in [17] and in test [18] was > 100 µM (inactive) throughout.

`CC(O)c1c2c(cc3c1CC1(C3)Cc3cc4c(c(C(C)O)c3C1)CCC4)CCC2` (stereo not drawn): the GI50 in test [1] was 14.9 µM (inactive); in test [2], 13.6 µM (inactive); in test [4] it was 5.82 µM (inactive); in test [5] it was 14.8 µM; in test [19], 4.76 µM (inactive); in [6] it was 12.9 µM (inactive). For the same compound, the GI50 in test [7] is 11.8 µM (inactive); in [20], 4.13 µM (inactive); in [8], 15.9 µM (inactive); in test [9] it was 15.6 µM (inactive); in test [10], 13.1 µM (inactive); in test [11] it was 46.2 µM (inactive). The GI50 was 18.7 µM (inactive) in [12]; 12.6 µM (inactive) in [13]; 16.7 µM (inactive) in test [14]; 11.9 µM (inactive) in test [16]; 14.1 µM (inactive) in test [17]; 1.69 µM (inactive) in test [18].

For `O=C1Nc2cccc(C(F)(F)F)c2/C1=N/Nc1ccccc1[N+](=O)[O-]`, the GI50 in test [1] is 0.836 µM (active); in test [2] it was 48 µM (inactive); in [3] it was > 100 µM (inactive); in test [4], 40.6 µM (inactive); in test [5], 34.4 µM; in test [19], 32.9 µM (inactive). The GI50 in [6] is 36.4 µM (inactive); in test [7], 14.4 µM (inactive); in test [20] it was 28.6 µM (inactive); in [9], 23.1 µM (inactive); in test [10] it was 22.4 µM (inactive); in test [11] it was 26.1 µM (inactive). Further, the GI50 in test [12] was 37.6 µM (inactive); in test [13], 11.4 µM (inactive); in [14], 23.4 µM (inactive); in [15] it was 33 µM (inactive); in test [16] it was 56.6 µM (inactive); in test [17], 21 µM (inactive). In test [18], the GI50 was 33.9 µM (inactive).

In the case of `COc1cc(OC)nc(-n2c(N)c(C#N)c3ccc([N+](=O)[O-])cc3c2=O)n1`, the GI50 in test [1] is > 100 µM (inactive); in test [2], > 100 µM (inactive); in test [3], > 100 µM (inactive); in [4], > 100 µM (inactive); in test [5], over 100 µM; in test [19], > 100 µM (inactive). In addition, the GI50 was > 100 µM (inactive) in test [6]; > 100 µM (inactive) in test [7]; > 100 µM (inactive) in test [20]; 18.3 µM (inactive) in test [10]; > 100 µM (inactive) in test [11]; > 100 µM (inactive) in test [12]. In addition, the GI50 was > 100 µM (inactive) in test [13]; > 100 µM (inactive) in test [14]; > 100 µM (inactive) in [15]; > 100 µM (inactive) in test [16]; 92.3 µM (inactive) in test [17]; > 100 µM (inactive) in test [18].

In the case of `O=[N+]([O-])c1ccc2sc(/C=N/c3ccccn3)cc2c1`, the GI50 in test [1] is > 100 µM (inactive); in [2] it was > 100 µM (inactive); in test [3] it was > 100 µM (inactive); in test [4] it was 33.8 µM (inactive); in test [5], 51.4 µM; in test [19] it was 28.5 µM (inactive). Also, the GI50 in test [6] was > 100 µM (inactive); in [7] it was 30.4 µM (inactive); in test [20] it was 19.7 µM (inactive); in test [8], > 100 µM (inactive); in [10], > 100 µM (inactive); in test [11], 35.2 µM (inactive). The GI50 in [12] is 69.5 µM (inactive); in test [13], 22.6 µM (inactive); in test [14], 88.7 µM (inactive); in test [15] it was 21.7 µM (inactive); in [16], 26 µM (inactive); in [17], 33.7 µM (inactive). Moreover, the GI50 in test [18] is > 100 µM (inactive).

In the case of `NCCCCN` [PUTRESCINE HYDROCHLORIDE], the GI50 in test [1] is > 100 µM (inactive); in test [2] it was > 100 µM (inactive); in test [3] it was 15 µM (inactive); in [4], > 100 µM (inactive); in test [5], over 100 µM; in test [19], > 100 µM (inactive). Moreover, the GI50 in [6], in test [7], in test [20], in [8], in [9] and in test [10] was > 100 µM (inactive) each time. The GI50 in test [11], in test [12], in [15], in [16], in test [17] and in [18] was > 100 µM (inactive) in each case.

With `CCOc1ccc(N/C(=C(/C(Cl)=C(/Cl)N2CCCCC2)[N+](=O)[O-])n2nnc3ccccc32)cc1`, the GI50 was 18.3 µM (inactive) in test [1]; 21.5 µM (inactive) in test [2]; 9.23 µM (inactive) in [3]; 11.1 µM in test [5]; 16.9 µM (inactive) in test [7]; 5.27 µM (inactive) in test [20]. Besides, the GI50 in [8] is 21.7 µM (inactive); in test [9] it was 27.9 µM (inactive); in test [10], 6.31 µM (inactive); in test [12] it was 11.6 µM (inactive); in [13], 14.7 µM (inactive); in test [14] it was 19.3 µM (inactive). For the same compound, the GI50 in test [16] was 17.3 µM (inactive); in test [17] it was 15.6 µM (inactive); in test [18], 2 µM (inactive).

For the compound `Nc1nc(N)c(Cn2ccnc2)c(O)n1`, the GI50 in test [1] was > 100 µM (inactive); in test [2] it was > 100 µM (inactive); in test [3], > 100 µM (inactive); in [5], over 100 µM; in [6] it was > 100 µM (inactive); in test [7] it was > 100 µM (inactive). Further, the GI50 in test [8], in test [9], in [10], in test [11], in test [12] and in test [13] was > 100 µM (inactive) in each case. Moreover, the GI50 in test [14] was 5.15 µM (inactive); in test [16] it was > 100 µM (inactive); in test [17], > 100 µM (inactive); in [18], > 100 µM (inactive).

In the case of `O=[N+]([O-])/C=C/COCc1cc2c(cc1Br)OCO2`, the GI50 is 27.6 µM (inactive) in test [1]; 21.7 µM (inactive) in [2]; 20.6 µM (inactive) in test [3]; 1.15 µM (inactive) in test [4]; 18 µM in test [5]; 20.8 µM (inactive) in test [6]. The GI50 was 17.2 µM (inactive) in [7]; 48.3 µM (inactive) in test [20]; 22 µM (inactive) in test [10]; 31.9 µM (inactive) in [11]; 13 µM (inactive) in test [12]; 39.5 µM (inactive) in test [13]. The GI50 in [14] was 18.6 µM (inactive); in [15], 16 µM (inactive); in test [16], 16.7 µM (inactive); in test [17], 17 µM (inactive); in [18], 17.2 µM (inactive).
